According to patent US20060147456A1, “Induction of apoptosis in toll-like receptor expressing tumor cells” (priority 2004, published 2006):
Residues, ends and D or L forms follow the SMILES beside them. *: point of attachment. Cbz = O=C(OCc1ccccc1)*; CH2F = FC*

Legend:
Assay type in all cases: cell-based, human
Cama-1 cells = assay: Apoptosis by annexin V staining and flow cytometry; conditions: Cama-1; for effect on Poly IC induced apoptosis: 5 μg/ml Poly IC; for percentage of apoptotic cells: 5 μg/ml Poly IC or 25 ng/ml TNF-α
Description: (§1) Cell recovery after treatment with TLR ligands was measured by crystal violet staining (Sigma-Aldrich). Cells were plated at 10^4 cells/well in 96 well plates. After 72 hours of culture either with or without TLR ligand, the cells were washed with PBS, fixed in 6% formaldehyde (Sigma-Aldrich) for 20 minutes, washed twice, and then stained with 0.1% crystal violet for 10 minutes. After washes and incubation in 1% SDS for 1 hour, the absorbance was read at 605 nm on a Vmax plate reader (Molecular Devices, Sunnyvale, Calif.). Annexin V staining was performed with an annexin-FITC apoptosis detection kit (BD Pharmingen, San Diego, Calif.) according to the manufacturer's instructions. Sub-diploid cells were detected by staining with 3 μg/mL propidium iodide (PI) (Molecular probes, Eugene, Oreg.), after overnight permeabilization in 70% ethanol. Fluorescence was analyzed by flow cytometry on a FACScalibur (Becton Dickinson, Mountain View, Calif.) equipped with a doublet-discrimination module and using Celiquest Pro software (Becton Dickinson).
Cama-1 cells were plated in 6 well plates at 3×10^5 cells per well. After overnight adherence, siRNA transfections were performed for 5 hours in OptiMEM medium (Life technologies) containing 3 μg/mL lipofectamine 2000 (Invivogen) and 100 nM siRNA. Cells were then washed and cultured for 72 hours in complete medium before treatment with Poly IC and apoptosis analysis. siRNA duplexes specific for TLR3, PKR, IRAK-4, TRAF6 and p65 were purchased from Dharmacon (Lafayette, Colo.) as SMART-Pools. TRIF siRNA was purchased from the same supplier as single oligoduplexes (5′-GCUCUUGUAUCUGMGCAC-3′) (SEQ ID NO: 23). TLR3 and TRIF expression was assessed by PCR (35 cycles: 1 min 94° C., 1 min 55° C., 2 min 72° C.) with Taq PCR ReadyMix (Sigma-Aldrich) using following primers: […]
To further investigate the effect of Poly IC treatment on breast tumor cell lines, cell death was analyzed in Cama-1 cells by annexin V staining. Cells were cultured for 24 hours either with or without 5 μg/ml of Poly IC. Apoptosis was measured by annexin V staining and flow cytometry.
We also tried to determine the kinetics of Poly IC induced apoptosis. Cama-1 cells were cultured either with or without 5 μg/ml or 50 ng/ml of Poly IC. The percentage of apoptotic (annexin positive) cells in the culture were measured during the following 30 hours. […] Specifically, Poly IC triggered apoptosis in Cama-1 cells beginning 9 hours after Poly IC addition and reaching up to 80% apoptotic cells after 30 hours of treatment.
Poly AU was analyzed for its effects on apoptosis. Cama-1 cells were cultured for 48 hours either with PBS or with increasing concentrations of Poly AU ranging from 5 ng/ml to 50 μg/ml. Apoptosis was analyzed by measuring the percentage of annexin V positive cells.
In order to determine the pathway of Poly IC induced Cama-1 cell toxicity, RNA interference was used to efficiently downregulate expression of TRIF and PKR. Cama-1 cells were plated in 6 well plates at 3×10^5 cells per well. After overnight adherence, siRNA transfections were performed for 5 hours in OptiMEM medium (Life technologies) containing 3 μg/mL lipofectamine 2000 (Invivogen) and 100 nM siRNA. Cells were transfected with either MOCK (water), control scrambled duplex (scr) siRNA, TRIF siRNA or PKR siRNA.
72 hours after siRNA transfection, Cama-1 cells were cultured for another 24 hours either with or without 5 μg/ml Poly IC. Apoptosis was measured by annexin V staining and expressed as a percentage of apoptotic cells in culture. On average, 10% of control cells (MOCK and scr) that were untreated underwent apoptosis. In contrast, about 75% of control cells (MOCK and scr) that were treated with Poly IC underwent apoptosis.
To further investigate TLR3 mediated cytotoxicity, the involvement of the signaling molecules IRAK4 and TRAF6, both downstream mediators of TLR signaling, were assessed. Cama-1 cells were plated in 6 well plates at 3×10^5 cells per well. […]

[1] = tested on: Cama-1, SW527, BT483 and MCF-7; assay: Cell recovery by crystal violet staining, four breast tumor cell lines together; conditions: 72 h, 5 μg/ml PGN; for effect on cell recovery of any of the four breast cancer cell lines: 10 μg/ml LPS, 50 ng/ml flagellin, 6 μg/ml R848, 10 μg/ml CpG ODNs; for cell recovery, percent of control, on average: 50 μg/ml Poly IC or 10 μg/ml LPS, average of the four cell lines
Description: as §1
Four human breast tumor cell lines, Cama-1, SW527, BT483 and MCF-7, were analyzed for cell death in response to Poly IC. Cells were cultured for 72 hours with 5 μg/ml PGN, 50 μg/ml Poly IC or 10 μg/ml LPS. Control cells were cultured with PBS. Cytotoxicity was assessed by crystal violet staining and expressed as a percent of control.
Furthermore, additional TLR ligands were tested to determine any possible effects on cellular toxicity. The ligands tested were PGN, LPS, Flagellin, R848 and CpG. Cells were cultured for 72 hours with 5 μg/ml PGN, 10 μg/ml LPS, 50 ng/ml flagellin, 6 μg/ml R848, 10 μg/ml CpG ODNs, or with PBS as control. Cell recovery was assessed by crystal violet staining and expressed as a percent of control.

IL-8 = IL-8 secretion by breast cancer cell lines; conditions: certain cell lines
TLR3 mRNA = TLR3 mRNA expression by RT-PCR in Cama-1 cells; conditions: 48 h, 5 μg/ml, agent alone
Description: Cama-1 cells were analyzed for TLR3 mRNA expression in response to Poly IC. Cama-1 cells were cultured in complete medium (DMEM F12 containing […] glucose and complemented with 2 mM L-glutamine, 10% fetal calf serum, 160 μg/mL gentalline, 2.5 mg/mL sodium bicarbonate) for 48 hours either alone or with LPS (5 μg/ml) and/or with Poly IC (5 μg/ml). The mRNA from each group of cells was extracted. The mRNA was then reverse-transcribed and PCR amplified for 35 cycles (as above in Example 1) with hTLR3 specific primers: TLR3F: […] (SEQ ID NO: 5) and TLR3R: […] (SEQ ID NO: 6). TLR3 mRNA could not be amplified from resting Cama-1 cells.
Amplified DNA from RT-PCR using hTLR3 specific primers was run on a gel.

C[C@@H]1C[C@@H]([C@H](O)CC2CC(=O)NC(=O)C2)C(=O)[C@@H](C)C1 [CHX, Cycloheximide] was tested, and the “effect on TNF-α induced apoptosis” value (Cama-1 cells; 25 ng/ml TNF-α, annexin V) was “significantly sensitized Cama-1 cells to TNF-α induced apoptosis” and the “effect on Poly IC induced apoptosis” value (Cama-1 cells; annexin V) was “partially protected the cells against Poly IC induced apoptosis”.
With CCOCc1nc2c(N)nc3ccccc3c2n1CC(C)(C)O [R848] the “effect on cell recovery of any of the four breast cancer cell lines” value (shortened to “effect on cell recovery”) [1] was “None of those ligands significantly reduced cell recovery”.
With COC(=O)C[C@H](NC(=O)[C@H](C)NC(=O)[C@@H](NC(=O)OCc1ccccc1)C(C)C)C(=O)CF [z-VAD-fmk] (Cbz-Val-Ala-Asp(OMe)-CH2F) the “effect on Poly IC induced apoptosis” value (Cama-1 cells; annexin V) was “greatly reduced Poly IC induced apoptosis”.
With Flagellin the “effect on cell recovery” value [1] was “None of those ligands significantly reduced cell recovery”.
For Peptidoglycan [PGN], the “effect on cell recovery” value [1] was “None of those ligands significantly reduced cell recovery”, the “cell recovery, percent of control, on average” value [1] was 95% and the “secretion of IL-8” value (IL-8) was “induced secretion of IL-8 in certain cell lines”.
For TNF-α, the “percentage of apoptotic cells” value (Cama-1 cells; 25 μM z-VAD-fmk pre-incubation 1 h, 24 h) was 10%, the “percentage of apoptotic cells” value (Cama-1 cells; DMSO pre-incubation 1 h, 24 h) was 40% and the “percentage of apoptotic cells” value (Cama-1 cells; absence of antibody (Example 12)) was 40%. For the same compound, the “percentage of apoptotic cells” value (Cama-1 cells; pre-incubated with 10 μg/ml CHX, untreated 15%) was 70% and the “percentage of apoptotic cells” value (Cama-1 cells; pre-incubated with 20 μg/ml neutralizing anti TNF-α mAb) was 10%.
lipopolysaccharide [LPS] was tested, and the “effect on cell recovery” value [1] was “None of those ligands significantly reduced cell recovery”, the “cell recovery, percent of control, on average” value [1] was 95% and the “TLR3 mRNA expression” value (TLR3 mRNA) was “did not affect TLR3 mRNA expression”.
“polyadenylic-polyuridylic acid [Poly AU]” was tested, and the “apoptosis (annexin V positive cells)” value (Cama-1 cells; 48 h, 5 ng/ml to 50 μg/ml Poly AU) was “triggers apoptosis”.
